According to patent US10208027B2, “Processes for preparing ATR inhibitors” (Vertex Pharmaceuticals Incorporated, priority 2011, dated 2019):

What was measured:
[1] = molecular target: full-length ATR (Homo sapiens (Human), UniProt Q13535); experiment: ATR inhibition assay (radioactive-phosphate incorporation); type: biochemical
Method: Compounds can be screened for their ability to inhibit ATR kinase using a radioactive-phosphate incorporation assay. Assays are carried out in a mixture of 50 mM Tris/HCl (pH 7.5), 10 mM MgCl2 and 1 mM DTT. Final substrate concentrations are 10 μM [γ-33P]ATP (3 mCi 33P ATP/mmol ATP, Perkin Elmer) and 800 μM target peptide ([sequence]).
Assays are carried out at 25° C. in the presence of 5 nM full-length ATR. An assay stock buffer solution is prepared containing all of the reagents listed above, with the exception of ATP and the test compound of interest. […] The plate is pre-incubated for 10 minutes at 25° C. and the reaction initiated by addition of 15 μL [γ-33P]ATP (final concentration 10 μM).
The reaction is stopped after 24 hours by the addition of 30 μL 0.1M phosphoric acid containing 2 mM ATP. A multiscreen phosphocellulose filter 96-well plate (Millipore, Cat no. MAPHNOB50) is pretreated with 100 μL 0.2M phosphoric acid prior to the addition of 45 μL of the stopped assay mixture. […]
After removing mean background values for all of the data points, Ki(app) data are calculated from non-linear regression analysis of the initial rate data using the Prism software package (GraphPad Prism version 3.0cx for Macintosh, GraphPad Software, San Diego Calif., USA).

[2] = system: HCT116 colorectal cancer cells; experiment: Single agent HCT116 activity, 96 h cell viability (MTS) assay; type: cell-based; conditions: Homo sapiens, HCT-116, 96 h MTS viability, read-out: Single agent HT116 IC50
Method: Compounds can be screened for single agent activity against HCT116 colorectal cancer cells using a 96 h cell viability (MTS) assay. HCT116 are plated at 470 cells per well in 96-well polystyrene plates (Costar 3596) in 150 μl of McCoy's 5A media (Sigma M8403) supplemented with 10% foetal bovine serum (JRH Biosciences 12003), Penicillin/Streptomycin solution diluted 1:100 (Sigma P7539), and 2 mM L-glumtamine (Sigma G7513), and allowed to adhere overnight at 37° C. in 5% CO2. Compounds are then added to the cell media in 2-fold serial dilutions from a top final concentration of 10 μM as a full matrix of concentrations in a final cell volume of 200 μl, and the cells are then incubated at 37° C. in 5% CO2. After 96 h, 40 μl of MTS reagent (Promega G358a) is added to each well and the cells are incubated for 1 h at 37° C. in 5% CO2. Finally, absorbance is measured at 490 nm using a SpectraMax Plus 384 reader (Molecular Devices) and IC50 values can be calculated.

[3] = system: HCT116 colorectal cancer cells; experiment: Cisplatin sensitization assay, 96 h cell viability (MTS); type: cell-based; conditions: concentration of compound required to reduce the IC50 of Cisplatin alone by at least 3-fold; HCT116, 96 h MTS
Method: Compounds can be screened for their ability to sensitize HCT116 colorectal cancer cells to Cisplatin using a 96 h cell viability (MTS) assay. […] Compounds and Cisplatin are then both added simultaneously to the cell media in 2-fold serial dilutions from a top final concentration of 10 μM as a full matrix of concentrations in a final cell volume of 200 μl, and the cells are then incubated at 37° C. in 5% CO2. After 96 h, 40 μl of MTS reagent (Promega G358a) is added to each well and the cells are incubated for 1 h at 37° C. in 5% CO2.

Chain of full-length ATR (Q13535 whole entry): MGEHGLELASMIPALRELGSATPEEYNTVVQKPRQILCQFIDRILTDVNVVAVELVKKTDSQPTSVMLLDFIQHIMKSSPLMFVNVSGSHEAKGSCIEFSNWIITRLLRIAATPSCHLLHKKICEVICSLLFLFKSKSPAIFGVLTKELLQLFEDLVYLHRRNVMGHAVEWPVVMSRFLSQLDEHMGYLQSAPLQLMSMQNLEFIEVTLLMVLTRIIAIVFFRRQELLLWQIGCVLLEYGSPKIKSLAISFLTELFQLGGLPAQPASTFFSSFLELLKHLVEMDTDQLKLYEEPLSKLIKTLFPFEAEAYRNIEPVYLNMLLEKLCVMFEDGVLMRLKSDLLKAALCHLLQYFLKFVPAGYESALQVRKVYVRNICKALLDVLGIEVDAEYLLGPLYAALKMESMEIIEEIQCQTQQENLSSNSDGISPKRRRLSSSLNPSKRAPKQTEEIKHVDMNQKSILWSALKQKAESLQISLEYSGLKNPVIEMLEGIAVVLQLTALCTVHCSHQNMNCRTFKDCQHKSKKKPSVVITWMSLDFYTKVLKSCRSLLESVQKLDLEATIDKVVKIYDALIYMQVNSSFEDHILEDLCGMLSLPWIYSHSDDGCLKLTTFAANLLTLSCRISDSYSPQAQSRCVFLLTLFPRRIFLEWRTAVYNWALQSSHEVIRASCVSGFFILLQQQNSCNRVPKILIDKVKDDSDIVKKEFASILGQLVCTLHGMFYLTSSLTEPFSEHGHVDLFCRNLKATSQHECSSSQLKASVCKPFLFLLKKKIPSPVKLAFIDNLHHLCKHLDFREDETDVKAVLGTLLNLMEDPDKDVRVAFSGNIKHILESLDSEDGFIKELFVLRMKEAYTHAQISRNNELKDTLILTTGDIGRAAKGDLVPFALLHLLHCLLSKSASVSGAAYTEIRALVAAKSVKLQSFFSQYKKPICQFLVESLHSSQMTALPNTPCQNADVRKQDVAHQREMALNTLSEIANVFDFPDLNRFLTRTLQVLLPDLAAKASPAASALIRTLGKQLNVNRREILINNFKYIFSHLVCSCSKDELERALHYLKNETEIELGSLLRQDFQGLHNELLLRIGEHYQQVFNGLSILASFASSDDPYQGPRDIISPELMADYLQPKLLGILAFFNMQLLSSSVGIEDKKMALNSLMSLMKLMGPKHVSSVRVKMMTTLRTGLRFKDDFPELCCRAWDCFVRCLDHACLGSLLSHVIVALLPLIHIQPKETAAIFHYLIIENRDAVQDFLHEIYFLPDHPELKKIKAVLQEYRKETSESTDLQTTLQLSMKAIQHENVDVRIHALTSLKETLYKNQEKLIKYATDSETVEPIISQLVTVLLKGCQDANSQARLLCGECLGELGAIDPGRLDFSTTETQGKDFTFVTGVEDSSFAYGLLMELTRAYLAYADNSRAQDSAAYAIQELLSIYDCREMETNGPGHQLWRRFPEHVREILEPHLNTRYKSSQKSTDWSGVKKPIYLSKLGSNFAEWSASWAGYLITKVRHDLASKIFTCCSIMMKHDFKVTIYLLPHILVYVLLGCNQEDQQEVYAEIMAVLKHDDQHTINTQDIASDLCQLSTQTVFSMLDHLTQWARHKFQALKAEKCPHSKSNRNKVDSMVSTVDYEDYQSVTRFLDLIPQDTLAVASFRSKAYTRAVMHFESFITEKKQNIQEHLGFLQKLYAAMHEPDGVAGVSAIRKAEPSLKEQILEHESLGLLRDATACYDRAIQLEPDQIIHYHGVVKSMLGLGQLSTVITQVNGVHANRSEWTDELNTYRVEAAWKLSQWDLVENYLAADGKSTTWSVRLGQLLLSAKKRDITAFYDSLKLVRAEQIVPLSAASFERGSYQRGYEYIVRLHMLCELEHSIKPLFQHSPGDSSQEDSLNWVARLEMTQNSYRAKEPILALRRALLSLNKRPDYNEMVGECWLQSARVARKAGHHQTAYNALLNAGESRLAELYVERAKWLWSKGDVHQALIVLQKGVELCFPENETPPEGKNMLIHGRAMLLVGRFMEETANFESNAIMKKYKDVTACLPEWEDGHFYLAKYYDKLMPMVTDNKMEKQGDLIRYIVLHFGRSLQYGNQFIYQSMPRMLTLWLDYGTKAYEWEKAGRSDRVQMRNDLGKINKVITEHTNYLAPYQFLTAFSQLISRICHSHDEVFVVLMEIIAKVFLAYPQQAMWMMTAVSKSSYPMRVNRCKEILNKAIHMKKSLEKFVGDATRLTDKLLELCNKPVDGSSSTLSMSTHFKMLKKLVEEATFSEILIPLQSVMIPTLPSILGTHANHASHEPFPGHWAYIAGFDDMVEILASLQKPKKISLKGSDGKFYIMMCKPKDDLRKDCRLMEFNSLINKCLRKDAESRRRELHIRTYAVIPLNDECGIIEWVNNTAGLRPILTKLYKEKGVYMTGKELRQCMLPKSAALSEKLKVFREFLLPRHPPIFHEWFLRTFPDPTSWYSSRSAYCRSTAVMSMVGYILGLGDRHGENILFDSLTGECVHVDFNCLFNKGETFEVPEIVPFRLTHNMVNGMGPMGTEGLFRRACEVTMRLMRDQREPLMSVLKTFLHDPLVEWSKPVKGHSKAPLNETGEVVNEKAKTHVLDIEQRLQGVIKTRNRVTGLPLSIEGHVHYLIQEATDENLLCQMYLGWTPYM

Row | IC50 [2] [µM] | Molecule | Ki [1] [µM] | Cisplatin sensitization [3] [nM]
1 | 0.062 | [2H]C([2H])(NC)c1ccc(-c2cc(-c3nc(-c4ccc(S(=O)(=O)C(C)C)cc4)cnc3N)on2)cc1 [II-1, 3-[3-[4-[dideuterio(methylamino)methyl]phenyl]isoxazol-5-yl]-5-(4-isopropylsulfonylphenyl)pyrazin-2-amine] |  | 39
2 | 0.066 | [2H]C([2H])([2H])NCc1ccc(-c2cc(-c3nc(-c4ccc(S(=O)(=O)C(C)C)cc4)cnc3N)on2)cc1 [II-3, 5-(4-isopropylsulfonylphenyl)-3-[3-[4-[(trideuteriomethylamino)methyl]phenyl]isoxazol-5-yl]pyrazin-2-amine] |  | 39

More lines, now with the values behind:

Row | Molecule | IC50 [2] [µM] | Ki [1] [µM] | Cisplatin sensitization [3] [nM]
3 | 5-(4-(tert-butylsulfonyl)phenyl)-3-(3-(4-((methylamino)methyl)phenyl)isoxazol-5-yl)pyrazin-2-amine [Compound I-2] |  | < 0.001 | 
4 | CC(C)(C#N)c1cc(-c2cnc(N)c(-c3cc(-c4ccc(CNC5CCOCC5)cc4)no3)n2)ccn1 [Compound I-1, 2-(4-(5-amino-6-(3-(4-((tetrahydro-2H-pyran-4-ylamino)methyl)phenyl)isoxazol-5-yl)pyrazin-2-yl)pyridin-2-yl)-2-methylpropanenitrile] |  | < 0.001 | 
5 | [2H]C([2H])([2H])NC([2H])([2H])c1ccc(-c2cc(-c3nc(-c4ccc(S(=O)(=O)C(C)C)cc4)cnc3N)on2)cc1 [II-2, 3-[3-[4-[dideuterio-(trideuteriomethylamino)methyl]phenyl]isoxazol-5-yl]-5-(4-isopropylsulfonylphenyl)pyrazin-2-amine] | 0.046 |  | 29
